Laboratory results published in patent US5087726A, “Carbamate ACAT inhibitors” (Warner-Lambert Company, priority 1990, dated 1992).

Biological target: T1, acyl-CoA:cholesterol acyltransferase (ACAT) (Oryctolagus cuniculus, UniProt G1SFD9)
T1 construct: tissue preparation containing rabbit intestinal microsomes; from tissue; host or cells: rabbit intestinal microsomes
T1 sequence (G1SFD9 1-524): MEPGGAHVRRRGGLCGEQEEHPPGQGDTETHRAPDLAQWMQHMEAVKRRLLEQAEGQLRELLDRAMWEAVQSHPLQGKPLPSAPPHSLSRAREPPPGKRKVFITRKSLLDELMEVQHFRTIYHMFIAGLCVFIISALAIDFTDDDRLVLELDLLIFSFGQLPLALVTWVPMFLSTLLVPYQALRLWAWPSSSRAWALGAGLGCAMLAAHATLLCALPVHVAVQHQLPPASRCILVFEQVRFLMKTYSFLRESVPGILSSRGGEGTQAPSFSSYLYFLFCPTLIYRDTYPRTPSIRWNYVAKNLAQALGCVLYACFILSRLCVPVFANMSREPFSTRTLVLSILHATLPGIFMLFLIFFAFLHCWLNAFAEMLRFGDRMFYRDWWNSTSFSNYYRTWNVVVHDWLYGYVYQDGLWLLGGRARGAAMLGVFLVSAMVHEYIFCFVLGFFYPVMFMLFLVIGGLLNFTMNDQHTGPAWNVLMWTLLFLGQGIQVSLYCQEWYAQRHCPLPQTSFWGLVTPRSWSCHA
Experiment: in vitro ACAT inhibition: radiolabeled cholesterol oleate formed from radiolabeled oleic acid in rabbit intestinal microsomes
Format: biochemical
Details: tissue preparation containing rabbit intestinal microsomes; read-out: IC50 value, i.e. the concentration of test compound required to inhibit 50% expression of the enzyme
Procedure: The ability of representative compounds of the present invention to inhibit ACAT was measured using an in vitro test more fully described in Field, F. J. and Salone, R. G., Biochemica et Biophysica 712: 557-570 (1982). The test assesses the ability of a test compound to inhibit the acylation of cholesterol by oleic acid by measuring the amount of radiolabeled cholesterol oleate formed from radiolabeled oleic acid in a tissue preparation containing rabbit intestinal microsomes.

How did the IC50 turn out when `CCCCCCCCCCCC(=O)N[C@@H](CNC(=O)Oc1c(C(C)C)cccc1C(C)C)c1ccccc1` [Example 1] was run?
The IC50 was 0.51 nM.
